# Assay: Antioxidant activity assessed as DPPH free radical scavenging activity at 0.01 to 1 mM after 30 mins
# Format: physicochemical
# Settings: 0.5 h, 1000 µM; call rule not given here
row,Compound,Activity
1,Cc1ccc(O)c(C(=O)O)c1,Active
2,O=C(O)c1cc([N+](=O)[O-])ccc1O,Active
3,NC(=O)c1cc(O)ccc1O,Active
4,COc1ccc(O)c(C(=O)O)c1,Active
5,O=C(O)c1cc(Cl)ccc1O [5-CHLOROSALICYLIC ACID],Active
6,O=C(O)c1cc(O)ccc1O [GENTISIC ACID],Active
7,Nc1ccc(O)c(C(=O)O)c1 [MESALAMINE],Active
8,"COC(=O)c1cc(O)ccc1O [METHYL 2,5-DIHYDROXYBENZOATE]",Active
9,O=C(O)c1ccccc1O [SALICYLIC ACID],Active

# Assay: Antioxidant activity assessed as DPPH free radical scavenging activity at 1 mM after 30 mins
# Format: physicochemical
# Settings: 0.5 h, 1000 µM
row,Compound,Activity
1,CC(=O)Nc1ccc(O)c(C(N)=O)c1,Active

# Source: ChEMBL document CHEMBL3627599, “The antioxidant properties of salicylate derivatives: A possible new mechanism of anti-inflammatory activity” (Bioorg Med Chem Lett, 2015)
